From US12091676B2, “Method for preparing non-human primate somatic cell cloned animal” (CENTER FOR EXCELLENCE IN BRAIN SCIENCE AND INTELLIGENCE …, priority 2018, dated 2024)

System: cynomolgus monkey somatic cell nuclear transfer embryos
Assay: In vitro development of cynomolgus monkey somatic cell nuclear transfer embryos to blastocyst
Format: cell-based, cynomolgus monkey (Macaca fascicularis)
Text: Oocyte denucleation: 15-20 MII stage oocytes were transferred to a glass-bottomed and oil-sealed TH3 working drop containing […], and the position of the oocyte nucleus was observed under the inverted microscope assisted by the spindle imaging system, and the oocyte was fixed with an egg-holding needle and the oocyte nucleus was located at 3 o'clock direction. The Piezo Micromainpulator System was used to drive a flat needle with a diameter of 10 microns to break the zona pellucida, and the oocyte nucleus was removed. After the whole group of oocytes were enucleated, the enucleated oocytes were transferred to HECM-9 medium.
Injection of fibroblasts into enucleated oocytes: 15-20 enucleated oocytes were transferred to an oil-sealed TH3 working drop containing […], and the oocytes were fixed with an egg holding needle, and the polar body was placed at 12 o'clock or 6 o'clock direction. The laser zona pellucida system was used for breaking the zona pellucida to form a narrow slit. An oblique needle with a diameter of 15-18 microns was used for aspirating fibroblasts and transferring the cells to HVJ-E for 10 seconds, and then the cells were removed and injected into the perivitelline space of the enucleated egg cell through the zona pellucida slit, and the somatic cell would fuse into the oocyte in about 10 minutes.
Injection of cumulus cells into enucleated oocytes: 15-20 enucleated oocytes were transferred to an oil-sealed TH3 working drop containing […], and the oocytes were fixed with an egg holding needle, and the polar body was placed at 12 o'clock or at 6 o'clock direction. The laser zona pellucida system was used for breaking the zona pellucida to form a narrow slit. A 10-micron oblique needle was used for aspirating the cumulus cells and transferring the cells to HVJ-E to soak for 10 seconds, then the cells were removed and injected into the 9 o'clock position of the enucleated egg cell through the zona pellucida slit, and the somatic cell would fuse into the oocyte in about 10 minutes.
In vitro activation of nuclear transfer embryos: Embryo activation can be performed 1-1.5 hours after the fusion of somatic cells and enucleated oocytes. The embryos were transferred to TH3 containing 5 μM ionomycin for 5 minutes, then transferred to HECM-9 medium containing 2 mM 6-DMAP and 10 nM TSA for 5 hours, then transferred to HECM-9 containing 10 nM TSA and cultured for 5 hours, and finally transferred to HECM-9 medium for culture.
Kdm4d mRNA injection: 5-6 hours after embryo activation, the activated embryo was transferred to an oil-sealed TH3 working drop containing 5 μg/ml CB, the embryo was fixed with an egg-holding needle, and the Piezo Micromainpulator System was used to drive a flat injection needle with a diameter of 2-3 microns to break the zona pellucida and penetrate deep into the embryo. The embryo cell membrane was broken and 1000 ng/μl of Kdm4d mRNA was injected into the embryo, and each embryo was injected about 10 pl. After the injection, the embryos were transferred to HECM-9 medium and cultured at 37° C. and 5% CO2.
Embryo culture: cloned embryos were cultured in HECM-9 medium, and then transferred to HECM-9 medium containing 5% FBS at the 8-cell stage, and the medium was changed every other day until blastocysts were appeared on day 7-8.

Kdm5b: H3K4me3 demethylase injected into monkey somatic cell nuclear transfer embryos
effect on improving the efficiency of monkey somatic cell nuclear transfer embryos: no significant effect
blastocyst rate (20 injected embryos): 10%
blastocysts obtained (number) (of 20 injected monkey somatic cell nuclear transfer embryos): 2

CC(/C=C/C(=O)NO)=C\[C@@H](C)C(=O)c1ccc(N(C)C)cc1 [TSA, Trichostatin, reference compound]
embryos developed to the blastocyst stage (blastocysts/embryos) (SCNT embryos cultured in vitro, TSA 10 nM, 10 h during and after activation): 5/31
blastocysts that had inner cell masses (out of 5 blastocysts, TSA 10 nM, 10 h): 2
